# Laboratory results as given in PMC12366525, “Characterization of allosteric modulators that disrupt androgen receptor co-activator protein-protein interactions to alter transactivation–Drug leads for metastatic castration resistant prostate cancer” (SLAS discovery : advancing life sciences R & D, 2023).
# pIC50: −log10 of the molar value. Several values for one entry are separate records, joined by “and”; a condition that tells them apart may be missing. Equal values may be shown once.
# Columns and labels:
# PSA [1] = test: Dot blot of PSA secretion by C4–2 cells; format: cell-based, human; conditions: C4–2 cells; 10 nM DHT 24 h
# Procedure: To determine PSA secretion levels, C4–2 cells were seeded at 1.4 × 10 [5] cells/well in 12-well plates and treated as described above for PSA cell expression experiments. […] 500 μL of conditioned media supernatant was added to the wells of 96-well to Bio-blot apparatus (BioRad, Hercules, CA) containing a nitrocellulose membrane and was allowed to pass through and attach to the membrane under gravity for 3–4 h at room temperature. The membrane was washed 1x with 500 μL TBS under vacuum, blocked with 1% BSA in TBST for 1 h, and then incubated overnight at 4 °C with the primary rabbit anti-hPSA antibody (Cell Signaling, Danvers, MA) diluted 1:1000 in TBST plus 1% BSA. Dot blots were washed 3x in 10 mL of TBST for 10 min, then incubated for 1 h with secondary goat anti-rabbit-IgG HRP conjugated antibody (Invitrogen, Carlsbad, CA) diluted 1:10,000 in TBST plus 1% Bovine Serum Albumin (BSA), washed 3x with 10 mL of TBST for 10 min, and then developed with Pierce ECL western blotting substrate. Images of ECL dot blots were acquired on an iBright 1500 imaging system and quantified by iBright image analysis software.
# PSA [2] = test: Western blot of PSA expression in C4–2 cells; format: cell-based, human; conditions: C4–2 cells
# Procedure: Cell lysate protein concentrations were determined in a bicinchoninic acid (BCA) assay. Equal amounts of cell protein were mixed with SDS-PAGE sample buffer and placed in a heat block at 100 °C for 5 min. The protein constituents of C4–2 cells were separated by SDS-PAGE on 10% separating gels, transferred to nitrocellulose membranes and western blots were probed overnight at 4 °C with a 1:1000 dilution of a rabbit anti-hPSA (Cell Signaling, Danvers, MA) primary antibody in Tris-buffered saline (TBS) Tween 20 (TBST) containing 5% non-fat milk. Membranes were washed 3x in TBST for 10 min, then incubated for 1 h at room temperature with a 1:10,000 dilution of the goat anti-rabbit IgG horse radish peroxidase (HRP) conjugated secondary antibody (Invitrogen, Carlsbad, CA) in TBST containing 5% non-fat milk. Western blots were then washed 3x in TBST and developed with Pierce enhanced chemiluminescence (ECL) western blotting substrate (Thermo Fisher Scientific, Waltham, MA). Images of western blot ECL bands were acquired on an iBright 1500 imaging system (Thermo Fisher Scientific, Waltham, MA) and quantified by iBright image analysis software.
# LNCaP cells = test: Prostate cancer cell line growth inhibition assay, LNCaP; format: cell-based; conditions: Homo sapiens, LNCaP, 72 h; read-out: LNCap GI50 (AR+)
# Procedure: (§1) The PC-3, DU-145, LNCaP, C4–2, and 22Rv1 PC cell line growth inhibition assays have been described previously. On day 1, each PC cell line was harvested, counted, and seeded into two 384-well assay plates, a time zero (T0) and a time 72 h (T72) plate. PC cell lines were all seeded at 1000 cells per well in 45 μL of tissue culture media in uncoated white clear bottom 384-well assay plates (VWR, # 82050–076) using a Matrix electronic multichannel pipette (Thermo Fisher Scientific, Waltham, MA) and cultured overnight at 37 °C, 5% CO2, and 95% humidity. On day 2, 25 μL of the Cell Titer Glo (CTG) (Promega Corporation, Madison, WI) detection reagent was dispensed into the wells of the T0 assay plate using a Matrix electronic multichannel pipette, and the RLUs were captured on the SpectraMax M5e (Molecular Devices LLC, Sunnyvale, CA) microtiter plate reader. Also on day 2, 5 μL of compounds were transferred into the test wells of the T72 384-well assay plates which were returned to the incubator for 72 h. Control wells received DMSO alone. On day 5, 25 μL of the CTG detection reagent was dispensed into the wells of the T72 assay plate using a Matrix electronic multichannel pipette, and the RLU’s were captured on the SpectraMax M5e microtiter plate reader platform.
# (§2) In 384-well assays, DMSO minimum (n = 32) and maximum (n = 32) plate control wells were utilized to calculate signal-to-background ratios (S:B) and Z’-factor coefficient assay performance quality control statistics, and to normalize the signals of compound treated wells and to represent 0% and 100% respectively. For the 96-well AR-LBD H^3-DHT radioligand binding assay, eight minimum and maximum plate control wells were utilized to normalize the data. For the PC cell line growth inhibition assays we used the DMSO control data from the T0 and T72 assay plates to assess the dynamic range of the T0 to T72 cell growth, and to calculate S:B ratios and Z’-factor coefficient statistics for the assay signal window (T0 to T72). To normalize the 72 h compound exposure PC growth inhibition data, the signals from the compound treated wells were processed and expressed as% of the T72 DMSO plate controls. IC50 and GI50 values for each of the bioassays were calculated using Graph-Pad Prism 9 software to plot and fit data to curves using the Sigmoidal dose response variable slope equation Y = Bottom + [Top-Bottom]/ [1 + 10^^(LogEC50-X)*HillSlope].
# U-2 OS cells = test: AR-TIF2 PPIB cell loss (Hoechst stained nuclei); format: cell-based; conditions: 4.5 h compound exposure
# Procedure: (§3) The AR-TIF2 PPIB HCS assay was performed in U-2 OS osteosarcoma cells as described previously. Briefly, U-2 OS cells were coinfected with recombinant adenovirus biosensor expression constructs and seeded at 2500 cells per well in 384-well collagen-coated microplates (Greiner BioOne #781956) and plates were incubated overnight at 37°C in 5% CO2 and 95% humidity. […] After the appropriate time, assay plates were fixed by transfer of 50 μL of pre-warmed (37°C) 7.4% formaldehyde and 2 μg/mL Hoechst 33342 in PBS and incubation at room temperature for 30 min. Liquid was aspirated, plates were washed twice with 85 μL PBS, leaving the final wash in the plate. Plates were sealed with adhesive aluminum plate seals, and fluorescent images of three fields of view were acquired in the DAPI (Hoechst stained nuclei), FITC (TIF2-GFP) and Texas Red (AR-RFP) channels on an ImageXpress Micro (IXM) automated HCS platform (Molecular Devices LLC, Sunnyvale, CA) using a 10X Plan Fluor 0.3 NA objective. Images were analyzed using the Translocation Enhanced (TE) image analysis module of the MetaXpress software as described previously.
# AR-TIF2 PPI [3] = molecular target: T1, AR-TIF2 PPI (Homo sapiens, UniProt P10275); test: AR-TIF2 PPI biosensor (PPIB) HCS assay, disruption of pre-formed AR-TIF2 PPI complexes; format: cell-based; conditions: U-2 OS cells; 25 nM DHT 90 min prior to compounds for 3 h
# T1 construct: expressed in transfected cells; host or cells: U-2 OS osteosarcoma cells, co-infected with recombinant adenoviruses
# T1 sequence (P10275 663-920 limits assumed): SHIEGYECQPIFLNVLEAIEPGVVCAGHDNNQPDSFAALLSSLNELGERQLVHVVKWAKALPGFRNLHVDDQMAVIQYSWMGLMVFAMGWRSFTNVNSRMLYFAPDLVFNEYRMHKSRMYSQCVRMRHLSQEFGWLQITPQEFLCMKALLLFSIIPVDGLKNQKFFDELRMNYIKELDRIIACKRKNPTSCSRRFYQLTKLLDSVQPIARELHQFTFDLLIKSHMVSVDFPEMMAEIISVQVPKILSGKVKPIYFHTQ
# Procedure: (§4) Daughter plates containing 2 μL of the serially diluted compounds in DMSO were prepared and replicated from 384-well serial dilution master plates using a Janus MDT platform outfitted with a 384-well transfer head. Aluminum adhesive plate seals were applied, and plates were stored at −20 °C. For bioassay testing, daughter plates were withdrawn from −20 °C storage, thawed to ambient temperature, and centrifuged for 1 min at 100 × g, and plate seals were removed before 38 μL of serum-free media (SFM) was transferred into wells using a Matrix pipettor (ThermoFisher, Waltham, MA), to generate an intermediate stock concentration of validation compounds ranging from 0.977 to 500 μM (5.0% DMSO). Diluted compounds were mixed by repeated aspiration and dispensation using a 384-well P30 dispensing head on the Janus MDT platform and then, 5 μL of diluted compounds was transferred to assay plate wells to provide a final concentration range from 0.0977 to 50 μM (0.5% DMSO).
# as §3, §2
# DU-145 cells = test: Prostate cancer cell line growth inhibition assay, DU-145; format: cell-based; conditions: Homo sapiens, DU-145, 72 h; read-out: DU145 GI50 (AR−)
# Procedure: as §1, §2
# AR-TIF2 PPI [4] = molecular target: T1, AR-TIF2 PPI; test: AR-TIF2 PPI biosensor (PPIB) HCS assay, inhibition of DHT-induced AR-TIF2 PPI formation; format: cell-based; conditions: U-2 OS cells; compounds 3 h prior to 25 nM DHT for 90 min
# Procedure: as §4, §3, §2
# 22Rv1 cells = test: Prostate cancer cell line growth inhibition assay, 22Rv1; format: cell-based; conditions: Homo sapiens, 22Rv1, 72 h; read-out: 22Rv1 GI50 (AR+)
# Procedure: as §1, §2
# PC-3 cells = test: Prostate cancer cell line growth inhibition assay, PC-3; format: cell-based; conditions: Homo sapiens, PC-3, 72 h, read-out: PC3 GI50 (AR−)
# Procedure: as §1, §2
# C4–2 cells = test: Prostate cancer cell line growth inhibition assay, C4–2; format: cell-based; conditions: C4-2, 72 h; read-out: C4–2 GI50 (AR +)
# Procedure: as §1, §2
# [5] = system: PC cell lines positive (LNCaP, C4–2, & 22Rv1 cells) or negative (PC-3 & DU-145) for AR; test: Prostate cancer cell line growth inhibition assays, panel statements; format: cell-based; conditions: ALL5; all 5 PC cell lines; 72 h; ≥50% growth inhibition not achieved at ≤100 μM; read-out: GI50 in any PC cell line
# Procedure: as §1, §2
# [6] = system: LNCaP mouse xenograft models; conditions: cited from earlier work
structure (smiles),measurement,setting,value
"C[C@]12CCC(=O)C[C@@H]1CC[C@@H]1[C@@H]2CC[C@]2(C)[C@@H](O)CC[C@@H]12 [DHT, 5α-dihydrotestosterone, reference compound]",Increase of PSA levels in conditioned media over untreated controls,PSA [1],2.4 fold
same,Increase of PSA levels in cells over untreated controls,PSA [2]; 10 nM DHT 24 h,12.3 fold and 11.4 fold
Cc1nsc(NC(=O)N2CCC(N3CCCC3=O)CC2)n1 [S2–9],GI50,LNCaP cells,> 100 µM
same,AR-TIF2 PPIB Cell Loss,U-2 OS cells,>100 µM
same,pIC50,AR-TIF2 PPI [3],< 4.00
same,GI50,DU-145 cells,> 100 µM
same,pIC50,AR-TIF2 PPI [4],< 4.00
same,GI50,22Rv1 cells,> 100 µM
same,GI50,PC-3 cells,> 100 µM
same,GI50,C4–2 cells,> 100 µM
same,GI50,[5],> 100 µM
Cc1nsc(NC(=O)N2CCC(F)CC2)n1 [S2–10],GI50,LNCaP cells,> 100 µM
same,AR-TIF2 PPIB Cell Loss,U-2 OS cells,>100 µM
same,GI50,DU-145 cells,> 100 µM
same,GI50,22Rv1 cells,> 100 µM
same,GI50,PC-3 cells,> 100 µM
same,GI50,C4–2 cells,> 100 µM
same,GI50,[5],> 100 µM
Cc1c(-c2ccccc2F)[nH]c2ccc(CNC(=O)c3cc[nH]n3)cc12 [S3–16],pIC50,AR-TIF2 PPI [4],4.54
Cc1c(-c2ccccc2F)[nH]c2ccc(CNC(=O)CCC3=NNC(=O)CC3)cc12 [S3–18],pIC50,AR-TIF2 PPI [3],< 4.00
same,pIC50,AR-TIF2 PPI [4],4.40
Cc1c(-c2ccccc2F)[nH]c2ccc(CNC(=O)Cc3cccnc3)cc12 [S3–19],pIC50,AR-TIF2 PPI [3],< 4.00
same,pIC50,AR-TIF2 PPI [4],4.16
CCc1[nH]c2c(CNC(=O)CCCc3cn[nH]c3)cc(F)cc2c1C [S3–25],pIC50,AR-TIF2 PPI [4],4.11
"Cc1cccc2c(-c3ccc4ccccc4n3)c[nH]c12 [VPC-13566, 2-(7-methyl-1H-indol-3-yl) quinoline]",CRPC tumor growth and serum PSA levels,[6],reduced CRPC tumor growth and serum PSA levels
CC(C)NC(=O)c1cccc2nc(-c3cn(COP(=O)([O-])[O-])c4c(F)c(F)c(F)cc34)ccc12.[Na+].[Na+] [VPC-13822],PSA production and CRPC tumor volume,[6],reduced PSA production and CRPC tumor volume
same,Toxicity in xenograft models,"[6]; mouse, in vivo",no observable toxicity
"CNC(=O)c1ccc(N2C(=S)N(c3ccc(C#N)c(C(F)(F)F)c3)C(=O)C2(C)C)cc1F [enzalutamide, reference compound]",Reduction of DHT-enhanced PSA expression levels,"PSA [2]; 25 μM for 3 h prior to 10 nM DHT, 24 h",7.5 fold
same,Reduction of endogenous PSA expression levels,"PSA [2]; 25 μM for 3 h prior to media, 24 h",3.3 fold
